Results published in BindingDB's records for doi:10.1021/jm00023a011 (Agricultural University of Athens, 1995).

How the values were obtained:
[1] = target: T1, Phospholipase A1 member A (Rattus norvegicus, UniProt P97535); assay: IC50 was measured as concentration causing 50% inhibition of lysosomal phospholipase A1 activity.
T1 sequence (P97535 whole entry): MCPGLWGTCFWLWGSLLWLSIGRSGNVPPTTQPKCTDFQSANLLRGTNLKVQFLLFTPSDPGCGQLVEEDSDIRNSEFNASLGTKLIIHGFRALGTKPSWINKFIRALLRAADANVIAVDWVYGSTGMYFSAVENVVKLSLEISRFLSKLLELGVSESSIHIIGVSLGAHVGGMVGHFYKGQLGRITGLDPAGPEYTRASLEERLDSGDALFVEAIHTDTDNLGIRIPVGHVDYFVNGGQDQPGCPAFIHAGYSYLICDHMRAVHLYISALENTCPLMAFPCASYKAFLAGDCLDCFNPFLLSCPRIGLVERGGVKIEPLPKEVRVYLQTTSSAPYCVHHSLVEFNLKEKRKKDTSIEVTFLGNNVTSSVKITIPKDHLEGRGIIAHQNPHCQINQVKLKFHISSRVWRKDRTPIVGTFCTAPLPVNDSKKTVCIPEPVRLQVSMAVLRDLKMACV

[2] = target: T1, Phospholipase A1 member A; assay: IC50 was measured as concentration causing 50% inhibition of lysosomal phospholipase A1 activity

IC50 [1] [µM] | IC50 [2] [µM] | SMILES
91.4 |  | CCNC1CC(N)C(OC2OC(CNC(=O)C(C)N)=CCC2N)C(O)C1OC1OCC(C)(O)C(NC)C1O (centres undefined)
 | 132 | CCNC1CC(N)C(OC2OC(CNC(=O)C(N)CC(=O)O)=CCC2N)C(O)C1OC1OCC(C)(O)C(NC)C1O (centres undefined)
75.5 |  | CC(N)C(=O)NCC1OC(OC2C(N)CC(N)C(OC3OC(CO)C(O)C(N)C3O)C2O)C(O)C(O)C1O (centres undefined)
 | 101 | CCN[C@@H]1C[C@H](N)[C@@H](O[C@H]2OC(CNC(=O)[C@H](C)NC(=O)[C@H](C)N)=CC[C@H]2N)[C@@H](O)[C@H]1O[C@H]1OC[C@](C)(O)[C@H](NC)[C@@H]1O
 | 49.4 | C[C@H](N)C(=O)N[C@@H](C)C(=O)NC[C@H]1O[C@H](O[C@H]2[C@@H](O)[C@@H](O[C@H]3O[C@@H](CO)[C@@H](O)[C@H](N)[C@@H]3O)[C@H](N)C[C@@H]2N)[C@H](O)[C@H](O)[C@@H]1O
 | 118 | CCNC1CC(N)C(OC2OC(CNC(=O)CN)=CCC2N)C(O)C1OC1OCC(C)(O)C(NC)C1O (centres undefined)
80.4 |  | NC[C@H]1O[C@H](O[C@H]2[C@H](O)[C@@H](O[C@H]3O[C@H](CO)[C@@H](O)[C@H](N)[C@H]3O)[C@H](N)C[C@@H]2N)[C@H](O)[C@@H](O)[C@@H]1O [CHEBI:17630]
115 |  | CCN[C@@H]1C[C@H](N)[C@@H](O[C@H]2OC(CN)=CC[C@H]2N)[C@H](O)[C@H]1O[C@H]1OC[C@](C)(O)[C@H](NC)[C@H]1O [Netilmicin]

SMILES | IC50 [1] [µM] | IC50 [2] [µM]
CN[C@@H]1[C@@H](O)[C@@H](O[C@@H]2[C@@H](O)[C@H](O[C@H]3O[C@H]([C@@H](C)NC)CC[C@H]3N)[C@@H](N)C[C@H]2N)OC[C@]1(C)O [GENTAMICIN] | 94.2 | 
